Holding throughout (format): biochemical
Assay [1] concerns the target Pim-3 (Homo sapiens (Human), UniProt Q86V86). Briefly: Pim-3 kinase assay. The settings on record: 1 mM ATP; read-out: Pim3 IC50. An outline of the steps:
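AlphaScreen-type assay: […] Pim-3 phosphorylates 0.05 μM biotin-BAD peptide with 1 mM ATP, 1 h at 25 °C, pH 7.5 Tris buffer with MgCl2 and DTT. EDTA stop with phospho-BAD (Ser112) antibody and donor/acceptor beads, 1 h dark incubation before reading.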

Assay [2] addresses Pim-2 (Homo sapiens (Human), UniProt Q9P1W9). The assay can be described thus: Pim-2 kinase assay. The settings on record: 1 mM ATP; read-out: Pim2 IC50.
Assay [3] has as its target Pim-1 (Homo sapiens (Human), UniProt P11309). The assay can be described thus: Pim-1 kinase assay. The conditions noted are these: 1 mM ATP; read-out: Pim1 IC50. The method, then:
Supplementation of the STOP buffer with beads and stopping the reactions were done under reduced light. Prior to the stopping reactions STOP buffer with beads was pre-incubated for 1 h in the dark at room temperature. After stopping the reactions, plates were incubated for 1 h in the dark at room temperature before reading on a PHERAstar FS plate reader (BMG Labtech) under reduced light.

The structures appear in SMILES notation.

Pim-1, sequence (P11309 whole entry): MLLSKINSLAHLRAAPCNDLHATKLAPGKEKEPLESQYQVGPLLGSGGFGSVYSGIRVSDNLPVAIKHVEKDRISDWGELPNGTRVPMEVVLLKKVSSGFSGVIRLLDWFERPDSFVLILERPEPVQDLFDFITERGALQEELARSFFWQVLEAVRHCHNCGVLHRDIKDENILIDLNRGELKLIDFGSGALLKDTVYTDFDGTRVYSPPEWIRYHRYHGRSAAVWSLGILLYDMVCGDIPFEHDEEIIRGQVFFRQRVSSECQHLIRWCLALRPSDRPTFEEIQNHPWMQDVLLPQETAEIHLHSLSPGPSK
Pim-2, sequence (Q9P1W9 whole entry): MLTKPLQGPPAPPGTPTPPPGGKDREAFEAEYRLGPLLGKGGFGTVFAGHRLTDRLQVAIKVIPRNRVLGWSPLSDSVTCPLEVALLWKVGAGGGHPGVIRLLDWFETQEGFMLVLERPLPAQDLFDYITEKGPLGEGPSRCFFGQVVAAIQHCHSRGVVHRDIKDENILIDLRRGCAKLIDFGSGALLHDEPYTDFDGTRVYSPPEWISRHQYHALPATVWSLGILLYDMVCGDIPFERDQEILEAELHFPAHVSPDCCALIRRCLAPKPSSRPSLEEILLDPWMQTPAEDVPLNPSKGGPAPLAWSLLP

A word on the IC50: it is the concentration needed to halve the response being measured. On to `COc1ccc(F)c(-c2nc(C(=O)Nc3cnc4c(c3N3CCC[C@H](N)C3)CCC4O)ccc2F)c1F` (single isomer, unassigned) [55 (Diastereoisomer 1)], for which the IC50 was not above 100 nM in assay [1], 100 to 1000 nM in assay [2] and not above 100 nM in assay [3].
On to `Nc1sc(-c2c(F)cccc2F)nc1C(=O)Nc1cnc2[nH]ncc2c1N1CCC[C@H](N)C1` [Example 34, 5-Amino-N-{4-[(3S)-3-aminopiperidin-1-yl]-1H-pyrazolo[3,4-b]pyridin-5-yl}-2-(2,6-difluorophenyl)-1,3-thiazole-4-carboxamide], for which the IC50 in assay [1] was not above 100 nM; in assay [2], more than 2000 nM; in assay [3] it was not above 100 nM.
With `CSc1cc(F)c(-c2nc(C(=O)Nc3cnc4c(c3N3CCC[C@H](N)C3)CCC4O)ccc2F)c(F)c1` (single isomer, unassigned) [58 (Diastereoisomer 1)], the results for the IC50 in assay [1], in assay [2] and in assay [3] were not above 100 nM, 100 to 1000 nM and not above 100 nM, respectively.
Take `N[C@H]1CCCN(c2c(NC(=O)c3ccc(F)c(-c4c(F)cccc4F)n3)cnc3c2CCC3=O)C1` [Example 50, N-{4-[(3S)-3-Aminopiperidin-1-yl]-7-oxo-6,7-dihydro-5H-cyclopenta[b]pyridin-3-yl}-6-(2,6-difluorophenyl)-5-fluoropyridine-2-carboxamide]: the figures for the IC50 in assay [1], in assay [2] and in assay [3] were not above 100 nM, 100 to 1000 nM and not above 100 nM, respectively.
Turning to `N[C@H]1CCCN(c2c(NC(=O)c3csc(-c4c(F)cccc4F)n3)cnc3c2CCC3)C1` [Example 13, N-{4-[(3S)-3-Aminopiperidin-1-yl]-6,7-dihydro-5H-cyclopenta[b]pyridin-3-yl}-2-(2,6-difluorophenyl)-1,3-thiazole-4-carboxamide], the IC50 in assay [1] is not above 100 nM; in assay [2], more than 2000 nM; in assay [3], not above 100 nM.
In the case of `C[C@H]1CN(c2c(NC(=O)c3ccc(F)c(-c4c(F)cccc4F)n3)cnc3c2CCC3O)C[C@@H](N)C1(C)O` (single isomer, unassigned) [63 (Diastereoisomer 1)], the IC50 in assay [1], in assay [2] and in assay [3] was not above 100 nM each time.
With `Nc1sc(-c2c(F)cccc2F)nc1C(=O)Nc1cnc2c(c1N1CC[C@@H](O)[C@@H](N)C1)CCC2` (single isomer, unassigned) [Example 26], the figures for the IC50 in assay [1], in assay [2] and in assay [3] were not above 100 nM, more than 2000 nM and not above 100 nM, respectively.
For the compound `C[C@H]1CN(c2c(NC(=O)c3nc(-c4c(F)cccc4F)sc3N)cnc3c2CCO3)C[C@@H](N)[C@@]1(C)O` [Example 75, 5-Amino-N-{4-[(3R,4S,5S)-3-amino-4-hydroxy-4,5-dimethylpiperidin-1-yl]-2,3-dihydrofuro[2,3-b]pyridin-5-yl}-2-(2,6-difluorophenyl)-1,3-thiazole-4-carboxamide], the IC50 in assay [1], in assay [2] and in assay [3] was not above 100 nM in each case.
In the case of `N[C@H]1CCCN(c2c(NC(=O)c3ccc(F)c(-c4c(F)cccc4F)n3)cnc3c2CCCN3)C1` [Example 33, N-{4-[(3S)-3-Aminopiperidin-1-yl]-5,6,7,8-tetrahydro-1,8-naphthyridin-3-yl}-6-(2,6-difluorophenyl)-5-fluoropyridine-2-carboxamide], the IC50 in assay [1] is not above 100 nM; in assay [2], 100 to 1000 nM; in assay [3], not above 100 nM.

The record behind these values is patent publication US10265307B2, “Thiazolecarboxamides and pyridinecarboxamide compounds useful as Pim kinase inhibitors” (Incyte Corporation, priority 2013, dated 2019).
